Data as given in patent US20080113347A1, “Method for the in Vitro Diagnosis and Prognosis of Demyelinating Diseases, and for the Development of Drugs Against Demyelinating Diseases” (priority 2003, published 2008).
d = 2'-deoxy (DNA); m = 2'-O-methyl

Key:
dusp6 gene expression = test: Differential analysis of dusp6 gene expression in oligodendrocyte cultures with Rat Genome U34 DNA arrays; format: cell-based; set-up: key to Change: Increases (I); Decreases (D); undergoes No Change (NC); Marginally Increases (MI); Marginally Decreases (MD); key to Detection: Present (P); Absent (A); Marginal (M); conditions: for Ratio (=2^SLR): fold change vs untreated control; for Signal (dusp6, probe set U42627_at): arrays scaled to total intensity 100; for Change: vs control
From the text: Microarrays. The microarrays GeneChip Test 3 (Affymetrix, Santa Clara) were used which allow testing the quality of the RNA prior to the expression analysis with GeneChip Rat Genome U34 set (Affymetrix, Santa Clara), representing 3322 complete gene sequences. The dusp6 gene is represented in the microarray by probe set U42627_at of Affymetrix, which are sense oligonucleotides of 25 nucleotides in length designed on the basis of GeneBank U42627 sequence (Table 1).
Samples. The samples studied corresponded to primary oligodendrocyte cultures obtained from the optic nerve of 12-day old rats. To prevent inter-individual variations, each culture corresponded to a 10-animal cell pool. Treatments were made in duplicate with 10 μM AMPA (α-amino-3-hydroxy-5-methyl-4-isoxazolepropionic acid) or 3 μM kainate. The duration of treatments was 2, 10 and 15 minutes, the cells being collected immediately after treatment in the first two cases and 1 hour after the 15-minute treatment. Treatment for 10 and 15 minutes with AMPA and with kainate causes apoptosis, whereas 2-minute treatment was considered sublethal due to scarce treatment duration. After treatments, the cells were collected in TRIzol® Reagent (Life Technologies) and were stored at −80° C. until total RNA extraction.
The analysis was carried out with total RNA from oligodendrocyte cultures. Each sample corresponded to the mixture of total RNAs from two cultures and were called the following: control: untreated cultured oligodendrocytes ampa 2: oligodendrocytes treated for 2 minutes with 10 μM AMPA and collected after treatment ampa 10: oligodendrocytes treated for 10 minutes with 10 μM AMPA collected after treatment ampa 15: oligodendrocytes treated for 15 minutes with 10 μM AMPA and collected 60 minutes later Kainate 2: oligodendrocytes treated for 2 minutes with 3 μM kainate and collected after treatment Kainate 10: oligodendrocytes treated for 10 minutes with 3 μM kainate and collected after treatment Kainate 15: oligodendrocytes treated for 15 minutes with 3 μM kainate and collected 60 minutes later The total RNA of each one of the cultures was obtained by homogenizing the cells in TRIzol® Reagent (Life Technologies) following the supplier's recommendations. The resulting total RNA was cleaned with the RNeasy Mini kit (QIAGEN) (Chomczynski P. et al., Anal. Biochem., 1987, 162: 156; Chomczynski P., Biotechniques, 1993, 15: 532). 2 μg from each total RNA preparation were used as starting material for the synthesis of biotinylated cRNA with the MessageAmp™ aRNA kit (Ambion).
15 μg of each biotinylated cRNA were fragmented at 94° C. for 35 minutes in a buffer solution containing 40 mM Tris-Acetate (pH 8.1), 100 mM KOAc and 30 mM MgOAc. The fragmented cRNA was mixed with hybridization buffer (10 mM MES, 1M NaCl, 20 mM EDTA, 0.01% Tween 20) and was heated at 99° C. for 5 minutes and subsequently at 45° C. for 5 minutes, to then be loaded into the Affymetrix array. The first array in which hybridization was carried out was Affymetrix Test 3. This array allows testing the quality of the RNA prior to expression analysis in the Affymetrix® GeneChip® Rat Genome U34 set (RG-U34).
For hybridization, the arrays were incubated in a rotary oven at 45° C. for 16 hours and with a constant rotation of 60 rpm.
Washing and staining of each array was carried out in the Affymetrix® Fluidics Station. A washing and staining program was used which included:
The arrays were scanned at 560 nm using a confocal microscope using laser emission (Agilent GeneArray Scanner). Analysis of the intensity readings was carried out with Microarray Suite 5.0 software. To compare the arrays, the latter were scaled to a total intensity of 100.
Differential analysis of the dusp6 gene expression in the oligodendrocytes stimulated with regard to the control was carried out from the array comparison data obtained using the Affymetrix software. […]

oligodendrocytes = conditions: UO126 10 μM
Protocol: DUSP6 is a negative regulator of the MAPK/ERK signaling pathway which promotes cell survival, as documented above in the Background of the Invention section. Because of that, we tested if the pharmacological inhibition of this pathway potentiates oligodendrocyte death triggered by activation of AMPA receptors.
To block the MAPK/ERK pathway, oligodendrocytes were incubated with UO126, a dual MEK1 & 2 inhibitor, for 15 min prior to the excitotoxic stimulus. Subsequently, cells were exposed to AMPA 10 μM+CTZ 100 μM during 15 minutes in the presence or absence of UO126, and cell viability was assessed 24 h later by the MTT method.

[1] = test system: oligodendrocytes treated with AMPA; test: Cell death inhibition in oligodendrocytes treated with AMPA after incubation with antisense oligonucleotides; format: cell-based, rat; conditions: ODN transfected with Lipofectin, stimulus 15 minutes, protecting effect assessed after 6 hours
Protocol: To evaluate if dusp6 expression blocking inhibits cell death of oligodendrocytes treated with AMPA, antisense oligonucleotides (ODNs) capable of blocking said gene expression were used. The working model used in this assay is a model based on the cell death of oligodendrocytes, a typical model for study the neurodegenerative phase of said demyelinating diseases.
Oligonucleotide design was carried out based on the secondary structure of the RNA, trying to prevent sequences presenting a high internal hybridization percentage, and with the aid of AO predict (http://www.cgb.ki.se/AOpredict/) computer software. To improve efficacy and capability to degrade RNA and to reduce side effects, last-generation oligonucleotides were designed, presenting two types of modifications; 2′-O-Methyl groups in the 6 first and last bases, and phosphorothiodated groups in the 8 intermediate bases. Furthermore, the oligonucleotides were labeled with Texas Red to be able to identify the cells transfected with said oligonucleotides.
Three antisense ODNs, for the purpose of identifying active sequences, plus a sense ODN, used as a negative control, were designed. To improve penetration thereof, the ODNs were transfected using the Lipofectin kit (Invitrogen).
24 hours after seeding, the oligodendrocytes were treated with a mixture of ODs at different concentrations coupled to the transfection kit liposomes.
After 24 hours, the cells were rinsed and were left another 24 hours before the experiment to ensure total blocking of the protein under study. Subsequently, the excitotoxic stimulus, AMPA 10 μM+CTZ 100 μM, was added during 15 minutes, and the protecting effect of the different ODNs after 6 hours was assessed.

[2] = treated 2 minutes (10 μM AMPA or 3 μM kainate), collected after treatment
[3] = treated 10 minutes (10 μM AMPA or 3 μM kainate), collected after treatment
[4] = treated 15 minutes (10 μM AMPA or 3 μM kainate), collected 60 minutes later
[5] = treatments with kainate (3 μM; 2, 10 and 15 minutes) taken together

C=C(C)[C@H]1CN[C@H](C(=O)O)[C@H]1CC(=O)O [Kainate, kainate]
SLR (vs control) (dusp6 gene expression; Signal Log Ratio (log2), treated 2 minutes (10 μM AMPA or 3 μM kainate), collected after treatment): 0.6 | SLR (vs control) (dusp6 gene expression; Signal Log Ratio (log2), treated 10 minutes (10 μM AMPA or 3 μM kainate), collected after treatment): 0.6 | SLR (vs control) (dusp6 gene expression; Signal Log Ratio (log2), treated 15 minutes (10 μM AMPA or 3 μM kainate), collected 60 minutes later): 0.9 | Ratio (=2^SLR) (dusp6 gene expression; [2]): 1.5 fold | Ratio (=2^SLR) (dusp6 gene expression; [3]): 1.5 fold | Ratio (=2^SLR) (dusp6 gene expression; [4]): 1.9 fold | Detection (dusp6 gene expression; [2]): P | Signal (dusp6, probe set U42627_at) (dusp6 gene expression; [2]): 48.4 | Detection (dusp6 gene expression; [3]): P | Signal (dusp6, probe set U42627_at) (dusp6 gene expression; [3]): 43.5 | Detection (dusp6 gene expression; [4]): P | Signal (dusp6, probe set U42627_at) (dusp6 gene expression; [4]): 63.7 | SLR (vs control) (dusp6 gene expression; [5]): < 1 | dusp6 expression increase with regard to the control (dusp6 gene expression; [5]): less than two fold | Change (dusp6 gene expression; [2]): I | Change (dusp6 gene expression; [3]): I | Change (dusp6 gene expression; [4]): I

N#CC(=C(/N)Sc1ccccc1N)/C(C#N)=C(/N)Sc1ccccc1N [UO126]
oligodendroglial cell death induced by AMPA 10 μM+CTZ 100 μM in the presence of UO126 (oligodendrocytes; 15 min prior to and during 15 minutes stimulus, MTT 24 h later, p<0.05, n=3 in triplicate): increased three-fold | oligodendroglial viability under control conditions (oligodendrocytes; MTT, 24 h later): did not affect oligodendroglial viability

ODN2: antisense ODN against dusp6; 2′-O-Methyl groups in 6 first and last bases, phosphorothiodated 8 intermediate bases, Texas Red labeled (antisense TCAACGTGGCCATCCCGGGC; sugars from the 5' end m6 d8 m6, backbone, methylation of C and T or U not given here; Texas Red label, phosphorothioates in eight intermediate bases)
oligodendroglial death after stimulation with AMPA 10 μM+CTZ 100 μM [1]: significantly inhibited | oligodendroglial death after stimulation with AMPA 10 μM+CTZ 100 μM ([1]; listed as SEQ ID NO:3): inhibit cell death of oligodendrocytes treated with AMPA

ODN3: antisense ODN against dusp6; 2′-O-Methyl groups in 6 first and last bases, phosphorothiodated 8 intermediate bases, Texas Red labeled (antisense CCAAGTGGACTCCCTGCAATC; sugars from the 5' end m6 d9 m6, backbone, methylation of C and T or U not given here; Texas Red label, phosphorothioates in eight intermediate bases)
oligodendroglial death after stimulation with AMPA 10 μM+CTZ 100 μM [1]: significantly inhibited | oligodendroglial death after stimulation with AMPA 10 μM+CTZ 100 μM ([1]; listed as SEQ ID NO:4): inhibit cell death of oligodendrocytes treated with AMPA
